How the values were obtained:
mouse [1] = tested on: mouse
mouse [2] = conditions: in vivo
Source text: An acetaminophen overdose mouse model for drug-induced liver injury was employed to determine the effect of liver injury on the RNA spectrum.

[3] = tested on: mouse dicer deficient (DCR −/−) fibroblast cell line; assay: Transfection of synthetic exogenous RNA into fibroblasts, effect on transcriptome (microarray, pathway enrichment of down-regulated genes); assay type: cell-based; conditions: 10 nM synthetic RNA, 24 hours; for effects on the cellular transcriptome (gene expression profiles): microarray; for Affected pathways: pathways enriched among down-regulated genes
Source text: We transfected several synthetic, double-stranded RNA molecules selected from observed exogenous miRNA sequences and some highly abundant exogenous sequences (bacterial rRNAs) that have potential to form pre-miRNA-like secondary structures (FIG. 7) into a mouse fibroblast cell line.
The mouse dicer deficient (DCR −/−) fibroblast cell line was generated from a conditional cre and floxed Dicer allele transgenic mouse available from Jax (located on the web at jaxmice.jax.org/strain/006001.html) kindly provided by Dr. Jacques Peschon. Part of the RNase III domain encoded in the exon 23 of dicer gene was deleted following cre excision. DCR −/− cells were maintained in Dulbecco's modified Eagle's medium with high glucose. The media was supplemented with 10% FBS, 1% non-essential amino acid, 1% GlutaMAX™. The cells were routinely incubated at 37° C. in a humidified atmosphere with 5% CO2.
Lipofectamine™ RNAiMAX was purchased from Invitrogen (Life Technologies, Carlsbad, Calif.). Custom designed exogenous RNA used in transfection was obtained from Ambion (Life Technologies, Carlsbad, Calif.). DCR −/− cells were seeded at a density of 1×10^5 cells in 6-well tissue culture plates 24 h prior to transfect with 10 nM of synthetic RNAs. Cells exposed to transfection reagents only were used as control. After 24 hours in the transfection media, the cells were harvested for RNA isolation and the transfection efficiency was validated with qPCR.
Effects of exogenous RNAs on transcriptome were assessed by using the Agilent mouse 4×44K microarray (Agilent, Santa Clara, Calif.). Total RNAs were isolated with an miRNeasy® column (Qiagen, Valencia, Calif.), and both Cy3 and Cy5-labeled cRNA samples were prepared with two color labeling kit (Agilent Technologies, Santa Clara, Calif.) and then hybridized at 65° C. for 17 h. Signal intensity was calculated from digitized images captured by a scanner from Agilent (Santa Clara, Calif.), and data analysis was performed by using GeneSpring GX software (Agilent Technologies, Santa Clara, Calif.).
The expression profiles of a number of genes in the cells were affected by some of the exogenous RNA sequences. We verified the changes in levels of some of these affected genes' mRNA by QPCR (FIG. 8).

[4] = Stability of RNA in plasma after enzyme or detergent treatment, qPCR; assay type: in vitro ADME, human
Experimental: The plasma samples were treated with various conditions (indicated on the top of the figure) prior to RNA isolation. The Y-axis represents the relative concentration change compared to no treatment determined by qPCR. The data represents the average changes from 9 plasma samples. The black bars represent the changes of an endogenous miRNA, miR-16, the open bars are exogenous miRNA, miR-263 from mosquitos and the gray bars are the 16S rRNA from Pseudomonas putida.
To explore the stability of exogenous RNA in plasma, we treated the plasma with RNase A from Fermentas™ (Thermo Scientific™, Wilmington, Del.) at a concentration at 1 μg/ml, DNase I (Fermentas™, Thermo Scientific™, Wilmington, Del.) at a concentration of 1 unit/ml, protease K (Fermentas™, Thermo Scientific™, Wilmington, Del.) at a concentration of 0.05 mg/ml, 0.1% Triton™ X 100, or protease K for 20 minutes followed by additional RNase A at 1 μg/ml after heat inactivation of protease K at 70° C. for 10 minutes prior for RNA isolation.
Adding additional RNase caused less reduction compared to protease followed by RNase treatments.

Row | Compound | histopathology of liver tissues (mouse [1]; acetaminophen overdose) | histopathology of kidney tissues (mouse [1]; mouse, in vivo) | level of albumin transcript in plasma (mouse [2]) | level of apolipoprotein A2 (apoA2) transcript in plasma (mouse [2]) | level of transferrin transcript in plasma (mouse [2]) | number of transcripts in plasma affected (mouse [2]) | time course of albumin transcript level in plasma (mouse [2]) | time course of apoA2 transcript level in plasma (mouse [2]) | time course of transferrin transcript level in plasma (mouse [2]) | effects on the cellular transcriptome (gene expression profiles) [3] | Affected pathways [3] | level of RNA in plasma after treatment ([4]; 0.1% Triton X-100 prior to RNA isolation) | level of RNA in plasma after treatment ([4]; RNase A 1 μg/ml prior to RNA isolation) | level of RNA in plasma after treatment ([4]; protease K 0.05 mg/ml prior to RNA isolation) | level of RNA in plasma after treatment ([4]; protease K for 20 minutes followed by RNase A 1 μg/ml)
1 | CC(=O)Nc1ccc(O)cc1 [acetaminophen] | typical zoon 3 hepatocyte death | renal tubular injury | significantly increased | significantly increased | significantly increased | Several hundred | spiked after 3 hours and decreased over a 24 hour period | spiked after 3 hours and decreased over a 24 hour period | increased to a lesser extent but held reasonably steady over a 24-hour period |  |  |  |  |  | 
2 | Bantam: synthetic RNA UGAGAUCAUUGUGAAAGCUGAUU, Bantam miRNA from house fly (synthetic double-stranded RNA, chemistry not given here; listed as Musca domestica) |  |  |  |  |  |  |  |  |  | did not produce any significant effects | No enriched pathway |  |  |  | 
3 | miR-263: exogenous miRNA AAUGGCACUGGAAGAAUUCACGG, miR-263a from mosquito; synthetic form transfected, native form measured in plasma (synthetic double-stranded RNA, chemistry not given here; listed as Culex pipiens) |  |  |  |  |  |  |  |  |  | did not produce any significant effects | No enriched pathway | reduced significantly | reduced significantly | reduced significantly | reduced significantly

Reference: patent US20140005054A1, “COMPLEX RNA COMPOSITION OF BODILY FLUIDS” (INSTITUTE FOR SYSTEMS BIOLOGY, priority 2012, published 2014)
